# Columns and labels:
# Venturia inaequalis = assay: fungicidal activity against foliar fungal diseases of plants, Venturia inaequalis (apple); assay type: in vivo; conditions: 100 ppm foliar spray plus root drench ca. 40 ppm a.i./dry soil, 1-2 days before inoculation
# Plasmorpara viticola = assay: fungicidal activity against foliar fungal diseases of plants, Plasmorpara viticola (vine); assay type: in vivo; conditions: 100 ppm foliar spray plus root drench ca. 40 ppm a.i./dry soil, 1-2 days before inoculation
# Phytophthora infestans = assay type: in vivo; conditions: 100 ppm foliar spray plus root drench ca. 40 ppm a.i./dry soil, 1-2 days before inoculation
# Cercospora arachidicola = assay: fungicidal activity against foliar fungal diseases of plants, Cercospora arachidicola (peanut); assay type: in vivo; conditions: 100 ppm foliar spray plus root drench ca. 40 ppm a.i./dry soil, 1-2 days before inoculation
# Erysiphe graminis = assay: fungicidal activity against foliar fungal diseases of plants, Erysiphe graminis (barley); assay type: in vivo; conditions: 100 ppm foliar spray plus root drench ca. 40 ppm a.i./dry soil, inoculated 24 hours before treatment
# Puccinia recondita = assay: fungicidal activity against foliar fungal diseases of plants, Puccinia recondita (wheat); assay type: in vivo; conditions: 100 ppm foliar spray plus root drench ca. 40 ppm a.i./dry soil, 1-2 days before inoculation
# Pyricularia oryzae = assay type: in vivo; conditions: 100 ppm foliar spray plus root drench ca. 40 ppm a.i./dry soil, 1-2 days before inoculation
# Maize = assay: plant growth regulating, whole plant screen, maize; assay type: in vivo, Maize (Earliking); conditions: maize (MZ); 4000 ppm (4 kg/ha); after 2-6 weeks
# Procedure: (§1) This Example illustrates the plant growth regulating properties of compounds 1 and 2 when tested on a whole plant screen against various species of plant. The plant species are identified in Table IV with the leaf stage at which they were sprayed.
# (§2) A formulation of each chemical was applied at 4000 ppm (4 kg/ha in a 1000 l/ha field volume) using a tracksprayer and a SS8004E (Teejet) nozzle.
# (§3) After spraying, the plants were grown in a glasshouse with 25° C. day/22° C. night temperatures. Supplementary lighting was supplied when necessary to provide an average photoperiod of 16 hours (14 hours minimum).
# (§4) After 2-6 weeks in the glasshouse, depending on species and time of year, the plants were visually assessed for morphological characteristics against a control plant sprayed with a blank formulation.
# Tomato = assay: plant growth regulating, whole plant screen, tomato; assay type: in vivo, Tomato (Ailsa Craig); conditions: tomato (TO); 4000 ppm (4 kg/ha); after 2-6 weeks
# Procedure: as §1, §2, §3, §4
# Apple = assay: plant growth regulating, whole plant screen, apple; assay type: in vivo, Apple (Red Delicious); conditions: apple (AP); 4000 ppm (4 kg/ha); after 2-6 weeks
# Procedure: as §1, §2, §3, §4
# [1] = tested on: Tetranychus urticae (spider mites - adults); assay: insecticidal properties, contact test, Tetranychus urticae adults (TUa); assay type: in vivo; conditions: 500 ppm, French bean leaf, 3 days
# Text: (§5) "SYNPERONIC" is a Registered Trade Mark.
# [2] = tested on: Nilaparvata lugens (brown plant hopper - nymphs); assay: insecticidal properties, contact test, Nilaparvata lugens nymphs (NL); assay type: in vivo; conditions: 500 ppm, rice plant, 3 days
# Text: as §5
# [3] = tested on: Heliothis virescens (tobacco budworm - larvae); assay: insecticidal properties, residual test, Heliothis virescens larvae (HV); assay type: in vivo; conditions: 500 ppm, cotton leaf, 3 days
# Text: as §5
# [4] = tested on: Tetranychus urticae (spider mites - ova); assay: insecticidal properties, contact test, Tetranychus urticae ova (TUe); assay type: in vivo; conditions: 500 ppm, French bean leaf, 6 days
# Text: as §5
# [5] = tested on: Meloidogyne incognita (tomato root knot eelworm - larvae); assay: nematode test, residual, Meloidogyne incognita larvae (MI); assay type: in vivo; conditions: 250 ppm, semi in-vitro, 7 days
# Text: as §5
# MI Meloidogyne incognita
# Rice = assay: plant growth regulating, whole plant screen, rice; assay type: in vivo, Rice (Ishikari); conditions: rice (RC); 4000 ppm (4 kg/ha); after 2-6 weeks
# Procedure: as §1, §2, §3, §4
# [6] = tested on: Musca domestica (houseflies - adults); assay: insecticidal properties, contact test, Musca domestica adults (MDa); assay type: in vivo; conditions: 500 ppm, cotton wool/sugar, 1 day
# Text: as §5
# [7] = tested on: Blattella germanica (cockroach nymphs); assay: insecticidal properties, residual test, Blattella germanica nymphs (BG); assay type: in vivo; conditions: 500 ppm, plastic pot, 3 days
# Text: as §5
# Myzus persicae (aphids) = assay: insecticidal properties, contact test, Myzus persicae (MP); assay type: in vivo; conditions: 500 ppm, Chinese Cabbage leaf, 3 days
# Text: as §5
# [8] = tested on: Musca domestica (houseflies - adults); assay: knockdown properties against Musca domestica (MDk); assay type: in vivo; conditions: 2000 ppm sprayed directly; inverted cup; knockdown at 15 minutes, mortality at 48 hours; 2 days
# Procedure: A sample of compound 1 was diluted with 2 mls acetone and made up of a 2000 ppm solution with 0.1% aqueous synperonic solution. The solution (1 ml) was then sprayed directly onto twenty mixed sex houseflies held in a drinking cup. Immediately after spraying the cups were inverted and left to dry. An assessment of knockdown was made when the cups were righted 15 minutes later. The flies were then provided with a 10% sucrose solution on a cotton wool pad, and held for 48 hours in a holding room conditioned at 25° C. and 65% relative humidity before a mortality assessment was made.
# [9] = tested on: Diabrotica balteata (rootworm larvae); assay: insecticidal properties, residual test, Diabrotica balteata (DB); assay type: in vivo; conditions: 500 ppm, filter paper/maize seed, 3 days
# Text: as §5
# [10] = tested on: Chilo partellus (maize and sorghum stem borers - larvae); assay: insecticidal properties, residual test, Chilo partellus larvae (CPA); conditions: 500 ppm, oilseed rape, 3 days
# Procedure: The activity of the compound was determined using insect, mite and nematode pests. The compound was used in the form of a liquid preparation containing 500 parts per million (ppm) by weight of the compound except for the test on Meloidogyne incognita when a liquid preparation of 250 ppm by weight was used. The preparation was made by dissolving the compound in acetone and diluting the solution with water containing 0.1% by weight of a wetting agent sold under the trade name "SYNPERONIC" NX until the liquid preparation contained the required concentration of the product.
# The test procedure adopted with regard to each pest was basically the same and comprised supporting a number of the pests on a medium which was usually a host plant or a foodstuff on which the pests feed, and treating either or both the pests and the medium with the preparation. The mortality of the pests was then assessed at periods usually varying from one to seven days after the treatment.
# The results of the tests are given in Table VII as a grading of mortality designated as 9, 5 or 0 wherein 9 indicates 80-100% mortality, 5 indicates 50-79% mortality and 0 indicates less than 50% mortality.
smiles,measurement,setting,value
CO/C=C(/C(=O)OC)n1ccc2ccc(Br)cc21 [Compound 7],"disease control, VENTURIA INAEQUALIS (APPLE)",Venturia inaequalis,4
same,"disease control, PLASMORPARA VITICOLA (VINE)",Plasmorpara viticola,4
same,"disease control, PH[…] (TOMATO)",Phytophthora infestans,4
same,"disease control, CERCOSPORA ARACHIDICOLA (PEANUT)",Cercospora arachidicola,4
same,"disease control, ERYSIPHE GRAMINIS (BARLEY)",Erysiphe graminis,4
same,"disease control, PUCCINIA RECONDITA (WHEAT)",Puccinia recondita,4
"CO/C=C(/C(=O)OC)n1ccc2ccc(-c3ccccc3)cc21 [Compound 3, (Z)-methyl 3-methoxy-2-[6-phenylindol-1-yl]acrylate]","disease control, VENTURIA INAEQUALIS (APPLE)",Venturia inaequalis,4
same,"disease control, PLASMORPARA VITICOLA (VINE)",Plasmorpara viticola,4
same,"disease control, P[…] (RICE)",Pyricularia oryzae,4
same,"disease control, PH[…] (TOMATO)",Phytophthora infestans,4
same,"disease control, ERYSIPHE GRAMINIS (BARLEY)",Erysiphe graminis,2 (6-25% of disease on untreated plants)
same,"disease control, PUCCINIA RECONDITA (WHEAT)",Puccinia recondita,4
CO/C=C(/C(=O)OC)n1ccc2ccc(OC)cc21 [Compound 4],"disease control, VENTURIA INAEQUALIS (APPLE)",Venturia inaequalis,4
same,"disease control, PLASMORPARA VITICOLA (VINE)",Plasmorpara viticola,4
same,"disease control, P[…] (RICE)",Pyricularia oryzae,4
same,"disease control, PH[…] (TOMATO)",Phytophthora infestans,0 (60-100% of disease on untreated plants)
same,"disease control, CERCOSPORA ARACHIDICOLA (PEANUT)",Cercospora arachidicola,3 (trace--5% of disease on untreated plants)
same,"disease control, ERYSIPHE GRAMINIS (BARLEY)",Erysiphe graminis,2 (6-25% of disease on untreated plants)
same,"disease control, PUCCINIA RECONDITA (WHEAT)",Puccinia recondita,1 (26-59% of disease on untreated plants)
"CCOc1ccc2ccn(/C(=C\OC)C(=O)OC)c2c1 [Compound 2, (Z)-methyl 3-methoxy-2-[6-ethoxyindol-1-yl]acrylate]","disease control, VENTURIA INAEQUALIS (APPLE)",Venturia inaequalis,4
same,"disease control, PLASMORPARA VITICOLA (VINE)",Plasmorpara viticola,4
same,A = Apical damage,Maize,2 (31-60%)
same,G = Greening effect,Maize,1 (10-30%)
same,A = Apical damage,Tomato,3 (61-100%)
same,I = Interligular or internodal length reduction,Tomato,3 (61-100%)
same,P = Phytotoxicity,Tomato,2 (11-30%)
same,R = Retardation,Tomato,3 (61-100%)
same,T = Tillering or side shooting,Tomato,1 (10-30%)
same,"disease control, P[…] (RICE)",Pyricularia oryzae,4
same,"disease control, PH[…] (TOMATO)",Phytophthora infestans,4
same,"disease control, CERCOSPORA ARACHIDICOLA (PEANUT)",Cercospora arachidicola,4
same,"disease control, ERYSIPHE GRAMINIS (BARLEY)",Erysiphe graminis,4
same,"disease control, PUCCINIA RECONDITA (WHEAT)",Puccinia recondita,4
CO/C=C(/C(=O)OC)n1ccc2ccccc21 [Compound 1],"disease control, VENTURIA INAEQUALIS (APPLE)",Venturia inaequalis,3 (trace--5% of disease on untreated plants)
same,"disease control, PLASMORPARA VITICOLA (VINE)",Plasmorpara viticola,4
same,I = Interligular or internodal length reduction,Apple,1 (10-30%)
same,R = Retardation,Apple,1 (10-30%)
same,"grading of mortality, TUa",[1],9 (80-100% mortality)
same,"grading of mortality, NL",[2],0 (less than 50% mortality)
same,"grading of mortality, HV",[3],0 (less than 50% mortality)
same,"grading of mortality, TUe",[4],0 (less than 50% mortality)
same,"disease control, P[…] (RICE)",Pyricularia oryzae,3 (trace--5% of disease on untreated plants)
same,"grading of mortality, MI",[5],0 (less than 50% mortality)
same,I = Interligular or internodal length reduction,Rice,1 (10-30%)
same,R = Retardation,Rice,1 (10-30%)
same,"grading of mortality, MDa",[6],0 (less than 50% mortality)
same,"grading of mortality, BG",[7],0 (less than 50% mortality)
same,"grading of mortality, MP",Myzus persicae (aphids),0 (less than 50% mortality)
same,"disease control, CERCOSPORA ARACHIDICOLA (PEANUT)",Cercospora arachidicola,3 (trace--5% of disease on untreated plants)
same,"grading of mortality, MDk (knockdown)",[8],0 (less than 50% mortality)
same,"disease control, ERYSIPHE GRAMINIS (BARLEY)",Erysiphe graminis,1 (26-59% of disease on untreated plants)
same,"grading of mortality, DB",[9],0 (less than 50% mortality)
same,"disease control, PUCCINIA RECONDITA (WHEAT)",Puccinia recondita,0 (60-100% of disease on untreated plants)
same,"grading of mortality, CPA",[10],9 (80-100% mortality)
CO/C=C(/C(=O)OC)n1ccc2ccc(I)cc21 [Compound 8],"disease control, VENTURIA INAEQUALIS (APPLE)",Venturia inaequalis,4
same,"disease control, PLASMORPARA VITICOLA (VINE)",Plasmorpara viticola,4
same,"disease control, PH[…] (TOMATO)",Phytophthora infestans,4
same,"disease control, CERCOSPORA ARACHIDICOLA (PEANUT)",Cercospora arachidicola,4
same,"disease control, ERYSIPHE GRAMINIS (BARLEY)",Erysiphe graminis,4
same,"disease control, PUCCINIA RECONDITA (WHEAT)",Puccinia recondita,4

# From patent US4812162A, “Indole derivatives and their use as fungicides, insecticides and pesticides” (Imperial Chemical Industries PLC, priority 1986, dated 1989)
